In patent US8192962B2, “Processes for detecting toxic substances” (Daikin Industries, Ltd., priority 2001, dated 2012):

Tested on: Transport facilitation protein genes
Test: DNA chip mRNA expression in yeast, transport facilitation protein genes (Table 5)
Assay type: cell-based, Saccharomyces cerevisiae S288C
Experimental: Yeast (Saccharomyces cerevisiae S288C (α SUC2mal mel gap2 CUP1)) were incubated at 25° C. on YPD medium (yeast extract 1%, polypepton 2%, glucose 2%). One of toxic chemical substances was added to the cells at logarithmic growth phase, and the cells were further incubated for two hours. Cells were cultured without any chemical substance in the same condition, and were used as control. Concentrations of the chemical substances were defined to inhibit the growth of the yeast but not lead to death.
After completion of the incubation, the culture was centrifuged to collect the cells. To the cells, sodium acetate buffer (50 mM sodium acetate, 10 mM EDTA, 1% SDS) was added, and the mixture was shaken at 65° C. for five minutes, followed by returning to room temperature, and obtaining the supernatant, of which the procedures were repeated two times. To the supernatant, ½ amount of a solution of phenol/chloroform was added, and the mixture was centrifuged to give a supernatant, which was added with an equal amount of chloroform, and the mixture was centrifuged to give a supernatant. To the supernatant, an equal amount of isopropanol containing 0.3 M sodium acetate was added, and the mixture was allowed to stand at room temperature for 30 minutes, after which the mixture was centrifuged to give a sediment of the whole RNAs. Seventy % ethanol was added to the sediment, and the mixture was again centrifuged to give a sediment, which was then dried and dissolved in water. mRNA was isolated from the whole RNAs as followings. In view of the fact that a poly A chain is attached to the 3′ terminus of mRNA, a polynucleotide having a poly T structure which was immobilized on the surface of latex beads was used to trap the mRNA, and then the mRNA was washed and eluted with spine column (Oligotex-dT30<Super>mRNA Purification Kit, Takara). Reverse transcription of the mRNA was conducted with a reverse transcriptase (Super Script II Reverse Transcriptase; catalogue No. 18064-014, GibcoBRL) using fluorescence-labeled nucleotides to give cDNAs that were introduced with Cy3-dUTP or Cy5-dUTP during the reverse transcription.
The labeled cDNAs were dissolved in TE buffer (10mM Tris-HCl/1 mM EDTA, pH8.0), and the solution was dropped on the DNA chip containing the whole genes of yeast (DNA Chip Research Inc. Japan) so that the cDNAs were hybridized on the DNA chip at 65° C. for over 12 hours. The fluoresces intensity of the DNA chip was read with a scanner, and the ratio relative to the fluorescence intensity resulting from the absence of chemical substance was estimated as the following, which is shown in Tables 1 to 9: […]

Na2As [(1)]
The level of expressed mRNA in the presence of chemical substance/The level of expressed mRNA in the absence of chemical substance (yeast gene YGR224W): 0.9
The level of expressed mRNA in the presence of chemical substance/The level of expressed mRNA in the absence of chemical substance (yeast gene YGR260W): 0.6
The level of expressed mRNA in the presence of chemical substance/The level of expressed mRNA in the absence of chemical substance (yeast gene YGR281W): 1.2
The level of expressed mRNA in the presence of chemical substance/The level of expressed mRNA in the absence of chemical substance (yeast gene YHL035C): 0.7
The level of expressed mRNA in the presence of chemical substance/The level of expressed mRNA in the absence of chemical substance (yeast gene YHL040C): 1.6
The level of expressed mRNA in the presence of chemical substance/The level of expressed mRNA in the absence of chemical substance (yeast gene YHL047C): 0.6
The level of expressed mRNA in the presence of chemical substance/The level of expressed mRNA in the absence of chemical substance (yeast gene YHR026W): 0.9
The level of expressed mRNA in the presence of chemical substance/The level of expressed mRNA in the absence of chemical substance (yeast gene YHR092C): 2.3
The level of expressed mRNA in the presence of chemical substance/The level of expressed mRNA in the absence of chemical substance (yeast gene YHR094C): 0.7
The level of expressed mRNA in the presence of chemical substance/The level of expressed mRNA in the absence of chemical substance (yeast gene YHR175W): 0.8
The level of expressed mRNA in the presence of chemical substance/The level of expressed mRNA in the absence of chemical substance (yeast gene YIL006W): 1.0
The level of expressed mRNA in the presence of chemical substance/The level of expressed mRNA in the absence of chemical substance (yeast gene YIL022W): 0.8
The level of expressed mRNA in the presence of chemical substance/The level of expressed mRNA in the absence of chemical substance (yeast gene YIL056W): 1.1
The level of expressed mRNA in the presence of chemical substance/The level of expressed mRNA in the absence of chemical substance (yeast gene YIL088C): 0.9
The level of expressed mRNA in the presence of chemical substance/The level of expressed mRNA in the absence of chemical substance (yeast gene YJL034W): 0.7
The level of expressed mRNA in the presence of chemical substance/The level of expressed mRNA in the absence of chemical substance (yeast gene YJL212C): 0.8
The level of expressed mRNA in the presence of chemical substance/The level of expressed mRNA in the absence of chemical substance (yeast gene YJL219W): 1.2
The level of expressed mRNA in the presence of chemical substance/The level of expressed mRNA in the absence of chemical substance (yeast gene YJR077C): 1.1
The level of expressed mRNA in the presence of chemical substance/The level of expressed mRNA in the absence of chemical substance (yeast gene YJR106W): 0.9
The level of expressed mRNA in the presence of chemical substance/The level of expressed mRNA in the absence of chemical substance (yeast gene YJR121W): 0.9
The level of expressed mRNA in the presence of chemical substance/The level of expressed mRNA in the absence of chemical substance (yeast gene YKL016C): 1.5
The level of expressed mRNA in the presence of chemical substance/The level of expressed mRNA in the absence of chemical substance (yeast gene YKL146W): 0.8
The level of expressed mRNA in the presence of chemical substance/The level of expressed mRNA in the absence of chemical substance (yeast gene YKR039W): 1.4
The level of expressed mRNA in the presence of chemical substance/The level of expressed mRNA in the absence of chemical substance (yeast gene YKR067W): 0.8
The level of expressed mRNA in the presence of chemical substance/The level of expressed mRNA in the absence of chemical substance (yeast gene YLL028W): 0.6
The level of expressed mRNA in the presence of chemical substance/The level of expressed mRNA in the absence of chemical substance (yeast gene YLR081W): 1.3
The level of expressed mRNA in the presence of chemical substance/The level of expressed mRNA in the absence of chemical substance (yeast gene YLR295C): 1.4
The level of expressed mRNA in the presence of chemical substance/The level of expressed mRNA in the absence of chemical substance (yeast gene YLR348C): 1.1
The level of expressed mRNA in the presence of chemical substance/The level of expressed mRNA in the absence of chemical substance (yeast gene YLR378C): 0.7
The level of expressed mRNA in the presence of chemical substance/The level of expressed mRNA in the absence of chemical substance (yeast gene YMR011W): 1.3
The level of expressed mRNA in the presence of chemical substance/The level of expressed mRNA in the absence of chemical substance (yeast gene YMR162C): 0.8
The level of expressed mRNA in the presence of chemical substance/The level of expressed mRNA in the absence of chemical substance (yeast gene YMR203W): 0.8
The level of expressed mRNA in the presence of chemical substance/The level of expressed mRNA in the absence of chemical substance (yeast gene YNL055C): 1.1
The level of expressed mRNA in the presence of chemical substance/The level of expressed mRNA in the absence of chemical substance (yeast gene YNR072W): 1.1
The level of expressed mRNA in the presence of chemical substance/The level of expressed mRNA in the absence of chemical substance (yeast gene YOL119C): 2.6
The level of expressed mRNA in the presence of chemical substance/The level of expressed mRNA in the absence of chemical substance (yeast gene YOL156W): 1.1
The level of expressed mRNA in the presence of chemical substance/The level of expressed mRNA in the absence of chemical substance (yeast gene YOL163W): 1.5
The level of expressed mRNA in the presence of chemical substance/The level of expressed mRNA in the absence of chemical substance (yeast gene YOR035C): 1.2
The level of expressed mRNA in the presence of chemical substance/The level of expressed mRNA in the absence of chemical substance (yeast gene YOR130C): 0.8
The level of expressed mRNA in the presence of chemical substance/The level of expressed mRNA in the absence of chemical substance (yeast gene YOR153W): 1.6
The level of expressed mRNA in the presence of chemical substance/The level of expressed mRNA in the absence of chemical substance (yeast gene YOR273C): 0.7
The level of expressed mRNA in the presence of chemical substance/The level of expressed mRNA in the absence of chemical substance (yeast gene YOR316C): 0.7
The level of expressed mRNA in the presence of chemical substance/The level of expressed mRNA in the absence of chemical substance (yeast gene YOR328W): 1.0
The level of expressed mRNA in the presence of chemical substance/The level of expressed mRNA in the absence of chemical substance (yeast gene YOR332W): 1.1
The level of expressed mRNA in the presence of chemical substance/The level of expressed mRNA in the absence of chemical substance (yeast gene YOR348C): 1.1
The level of expressed mRNA in the presence of chemical substance/The level of expressed mRNA in the absence of chemical substance (yeast gene YPL036W): 0.5
The level of expressed mRNA in the presence of chemical substance/The level of expressed mRNA in the absence of chemical substance (yeast gene YPL134C): 1.5
The level of expressed mRNA in the presence of chemical substance/The level of expressed mRNA in the absence of chemical substance (yeast gene YPL271W): 1.2
The level of expressed mRNA in the presence of chemical substance/The level of expressed mRNA in the absence of chemical substance (yeast gene YPR192W): 0.9
The level of expressed mRNA in the presence of chemical substance/The level of expressed mRNA in the absence of chemical substance (yeast gene YPR194C): 2.2
